Laboratory results as given in US6573262B2, “Composition and antiviral activity of substituted indoleoxoacetic piperazine derivatives” (priority 2000, dated 2003).

Test system: HIV-1 single-round infectious reporter virus
Assay: microbe, parasite or virus in culture
Format: cell-based
Settings: for EC50: Human immunodeficiency virus 1, HeLa-CD4/CCR5, 72 h, read-out: EC50 Group from Table 1; for inhibition at 10 µM: Human immunodeficiency virus 1, HeLa-CD4/CCR5, read-out: % Inhibition @ 10 uM

| SMILES | EC50 | inhibition at 10 µM |
| --- | --- | --- |
| CNC(=O)Cn1nnc(-c2ccc(F)c3c(C(=O)C(=O)N4CCN(C(=O)c5ccccc5)CC4)c[nH]c23)n1 [Example 71] | < 1000 nM | > 98% |
| COc1nc(-c2ccc(F)c3c(C(=O)C(=O)N4CCN(C(=O)c5ccccc5)CC4)c[nH]c23)no1 [Example 29] | < 1000 nM | > 98% |
| O=C(C(=O)N1CCN(C(=O)c2ccccc2)CC1)c1c[nH]c2c(-c3n[nH]c(CCl)n3)ccc(F)c12 [Example 194] | < 1000 nM |  |
| COC(=O)Cn1nnc(-c2ccc(F)c3c(C(=O)C(=O)N4CCN(C(=O)c5ccccc5)CC4)c[nH]c23)n1 [Example 22] | < 1000 nM | > 98% |
| O=C(C(=O)N1CCN(C(=O)c2ccccc2)CC1)c1c[nH]c2c(-c3ncon3)ccc(F)c12 [Example 79] | < 1000 nM | > 98% |
| O=C(C(=O)N1CCN(C(=O)c2ccccc2)CC1)c1c[nH]c2c(/C=N/O)ccc(F)c12 [Example 30] | < 1000 nM | > 98% |
| Cc1nc(-c2ccc(F)c3c(C(=O)C(=O)N4CCN(C(=O)c5ccccc5)C[C@H]4C)c[nH]c23)no1 [Example 178] | < 1000 nM |  |
| O=C(C(=O)N1CCN(C(=O)c2ccccc2)CC1)c1c[nH]c2c(-c3nnco3)ccc(F)c12 [Example 93] | < 1000 nM |  |
| CN(C)c1nc(-c2ccc(F)c3c(C(=O)C(=O)N4CCN(C(=O)c5ccccc5)CC4)c[nH]c23)no1 [Example 156] | < 1000 nM |  |
| O=C(Nc1ccccn1)c1ccc(F)c2c(C(=O)C(=O)N3CCN(C(=O)c4ccccc4)CC3)c[nH]c12 [Example 38] | < 1000 nM | > 98% |
| CNC(=O)Cn1cnc(-c2ccc(F)c3c(C(=O)C(=O)N4CCN(C(=O)c5ccccc5)CC4)c[nH]c23)n1 [Example 145] | < 1000 nM |  |
| N/C(=N\O)c1ccc(F)c2c(C(=O)C(=O)N3CCN(C(=O)c4ccccn4)CC3)c[nH]c12 [Example 183] | < 1000 nM |  |
| CCC(C)Nc1nc(-c2ccc(F)c3c(C(=O)C(=O)N4CCN(C(=O)c5ccccc5)C[C@H]4C)c[nH]c23)no1 (stereo partly drawn) [Example 160] | < 1000 nM |  |
| Cn1nnc(-c2ccc(F)c3c(C(=O)C(=O)N4CCN(C(=O)c5ccccc5)CC4)c[nH]c23)n1 [Example 21] | < 1000 nM | > 98% |
| N=C(NN)c1ccc(F)c2c(C(=O)C(=O)N3CCN(C(=O)c4ccccc4)CC3)c[nH]c12 [Example 77] |  | > 98% |
| C[C@@H]1CN(C(=O)c2ccccn2)CCN1C(=O)C(=O)c1c[nH]c2c(-c3nn[nH]n3)ccc(F)c12 [Example 34] | < 1000 nM | > 98% |
| CC(C)(C)OC(=O)N1CCN(C(=O)C(=O)c2c[nH]c3c(-c4ncon4)ccc(F)c23)CC1 [Example 122] | < 1000 nM |  |
| O=C(Nc1cccnc1)c1ccc(F)c2c(C(=O)C(=O)N3CCN(C(=O)c4ccccc4)CC3)c[nH]c12 [Example 35] | < 1000 nM | > 98% |
| C[C@@H]1CN(C(=O)c2ccccc2)CCN1C(=O)C(=O)c1c[nH]c2c(-c3noc(=O)[nH]3)ccc(F)c12 [Example 176] | < 1000 nM |  |
| COc1ccc(-c2ccco2)c2[nH]cc(C(=O)C(=O)N3CCN(C(=O)c4ccccc4)CC3)c12 [Example 11] | < 1000 nM | > 98% |
| COc1ccc(-c2cc3ccccc3s2)c2[nH]cc(C(=O)C(=O)N3CCN(C(=O)c4ccccc4)CC3)c12 [Example 19] | < 1000 nM | > 98% |
| COc1ccc(-c2cccnc2)c2[nH]cc(C(=O)C(=O)N3CCN(C(=O)c4ccccc4)CC3)c12 [Example 8] | < 1000 nM | > 98% |
| O=C(C(=O)N1CCN(C(=O)c2ccccc2)CC1)c1c[nH]c2c(-c3ccccn3)ccc(F)c12 [Example 5] | < 1000 nM | > 98% |

| SMILES | EC50 | inhibition at 10 µM |
| --- | --- | --- |
| CNC(=O)c1cccc2c(C(=O)C(=O)N3CCN(C(=O)c4ccccc4)C[C@H]3C)c[nH]c12 [Example 64] | < 1000 nM | > 98% |
| NC(=O)c1ccc(F)c2c(C(=O)C(=O)N3CCN(C(=O)c4ccccc4)CC3)c[nH]c12 [Example 42] | < 1000 nM | > 98% |
| C[C@@H]1CN(C(=O)c2ccccc2)CCN1C(=O)C(=O)c1c[nH]c2c(-c3noc(C4CC4)n3)ccc(F)c12 [Example 179] | < 1000 nM |  |
| NC(=O)c1nc(-c2ccc(F)c3c(C(=O)C(=O)N4CCN(C(=O)c5ccccc5)CC4)c[nH]c23)no1 [Example 103] | < 1000 nM |  |
| CCNC(=O)c1cccc2c(C(=O)C(=O)N3CCN(C(=O)c4ccccc4)C[C@H]3C)c[nH]c12 [Example 67] | < 1000 nM | > 98% |
| O=C(C(=O)N1CCN(C(=O)c2ccccc2)CC1)c1c[nH]c2c(-c3cncnc3)ccc(F)c12 [Example 9] | < 1000 nM | > 98% |
| O=C(C(=O)N1CCN(C(=O)c2ccccc2)CC1)c1c[nH]c2c(-c3cnc[nH]3)ccc(F)c12 [Example 85] | < 1000 nM |  |
| O=C(C(=O)N1CCN(C(=O)c2ccccc2)CC1)c1c[nH]c2c(-c3noc(CCl)n3)ccc(F)c12 [Example 97] | < 1000 nM |  |
| C[C@@H]1CN(C(=O)c2ccccc2)CCN1C(=O)C(=O)c1c[nH]c2c(-c3noc(NCCN4CCOCC4)n3)ccc(F)c12 [Example 159] | < 1000 nM |  |
| O=C(O)c1cc(-c2ccc(F)c3c(C(=O)C(=O)N4CCN(C(=O)c5ccccc5)CC4)c[nH]c23)on1 [Example 90] | < 1000 nM |  |
| CC(C)Nc1nc(-c2ccc(F)c3c(C(=O)C(=O)N4CCN(C(=O)c5ccccc5)CC4)c[nH]c23)no1 [Example 158] | < 1000 nM |  |
| COc1ccc(/C=N/O)c2[nH]cc(C(=O)C(=O)N3CCN(C(=O)c4ccccc4)CC3)c12 [Example 124] | < 1000 nM |  |
| CC(C)(C)OC(=O)NCCNC(=O)c1ccc(F)c2c(C(=O)C(=O)N3CCN(C(=O)c4ccccc4)CC3)c[nH]c12 [Example 153] | < 1000 nM |  |
| COc1ccc(-c2nccs2)c2[nH]cc(C(=O)C(=O)N3CCN(C(=O)c4ccccc4)CC3)c12 [Example 15] | < 1000 nM | > 98% |
| O=C(C(=O)N1CCN(C(=O)c2ccccc2)CC1)c1c[nH]c2c(-c3cncn3Cc3ccccc3)ccc(F)c12 [Example 84] | < 1000 nM |  |
| CCn1nnc(-c2ccc(F)c3c(C(=O)C(=O)N4CCN(C(=O)c5ccccc5)CC4)c[nH]c23)n1 [Example 23] | < 1000 nM | > 98% |
| COC(CNC(=O)c1ccc(F)c2c(C(=O)C(=O)N3CCN(C(=O)c4ccccc4)CC3)c[nH]c12)OC [Example 72] | < 1000 nM | > 98% |
| O=C(C(=O)N1CCN(C(=O)c2ccccc2)CC1)c1c[nH]c2c(C(=O)Nc3nnn[nH]3)cccc12 [Example 63] | < 1000 nM | 96% |
| O=C(C(=O)N1CCN(C(=O)c2ccccc2)CC1)c1c[nH]c2c(-c3ccccc3)ccc(F)c12 [Example 1] | < 1000 nM | > 98% |
| C[C@@H]1CN(C(=O)c2ccccc2)CCN1C(=O)C(=O)c1c[nH]c2c(C(=O)N(C)C)cccc12 [Example 65] | < 1000 nM | 70% |
| CC(C)(C)OC(=O)N1CCN(C(=O)C(=O)c2c[nH]c3c(/C(N)=N/O)ccc(F)c23)CC1 [Example 121] | < 1000 nM |  |
| CS(=O)(=O)NC(=O)c1ccc(F)c2c(C(=O)C(=O)N3CCN(C(=O)c4ccccc4)CC3)c[nH]c12 [Example 60] | < 1000 nM | > 98% |
